Measurements taken from ChEMBL document CHEMBL4433213, “Investigation on 2',3'-O-Substituted ATP Derivatives and Analogs as Novel P2X3 Receptor Antagonists” (ACS Med Chem Lett, 2019).

Legend:
[1] = species on record: Homo sapiens; assay: Selectivity ratio of IC50 for human P2X1R transfected in human […] 1321N1 cells to IC50 for human transfected in human 1321N1 cells; assay type: cell-based
[2] = species on record: Homo sapiens; assay: Selectivity ratio of IC50 for human P2X4R transfected in human […] 1321N1 cells to IC50 for human transfected in human 1321N1 cells; assay type: cell-based

Molecule `CC1(C)O[C@@H]2[C@H](O1)[C@@H](COP(=O)(O)OP(=O)(O)OP(=O)(O)O)O[C@H]2n1cnc2c(N)ncnc21` has a Ratio IC50 [1] of 10 and a Ratio IC50 [2] of 12.
